Test results: PubChem BioAssay AID489033 (Sanford-Burnham Center for Chemical Genomics, 2010)
Activity calls are given as the source filed them. No rule for the calls is given here.

Test system: 697B B-cell line, NF-kB luciferase reporter luminescence
Assay: inhibitors of B-cell NF-kB luciferase signal – 697B cells, luminescence, selectivity assay for T-cell antigen receptor NF-kB inhibitors, dose response (AID 489033)

| Structure (SMILES) | IC50 |
| --- | --- |
| CCOc1ccc2c(c1)sc(N)[n+]2Cc1cc(C)cc2cccnc12 | 33.3 µM (inactive) |
| CCOC(=O)c1c(C)[nH]c(C(=O)N/N=C/c2ccc(Br)cc2)c1C | > 80 µM (inactive) |
| Cc1oc(-c2ccc(Cl)cc2)nc1CS(=O)CC(=O)NCCCN1CCN(Cc2ccccc2)CC1 (configuration not stated) | 60.8 µM (inactive) |
| CCOc1cccc(/C=N/Nc2ccc(S(=O)(=O)N(CC)CC)cn2)c1O | 11.3 µM |
| COC(=O)c1cnc(Oc2ccc(NC(=O)NC(=O)c3c(F)cccc3Cl)cc2)cc1C(F)(F)F | > 80 µM (inactive) |
| Cc1ccc(COC(=O)c2cc([N+](=O)[O-])ccc2N2CCOCC2)cc1 | > 80 µM (inactive) |
| COc1ccc(CS(=O)/C(Cl)=C(/Cl)C(=O)Nc2ccc(OC)nc2)cc1 (configuration not stated) | 1.57 µM |
| Cn1ncnc2c(=O)n(C)c(=O)nc1-2 | 2.85 µM |
| Cc1ccc(C(=O)Nc2cnc3ccccc3c2)cc1 | 7.31 µM |
| CCCc1cc(C(=O)N/N=C/c2ccc(CC)s2)c2ccccc2n1 | 11.6 µM |
| COC(=O)c1c(NC(=O)c2ccc([N+](=O)[O-])o2)sc2c1CCN(C(C)C)C2 | 15 µM |
| CCCCCCCCCCCCCCCC[n+]1cccc(C(=O)N(CC)CC)c1 | 3.3 µM |
| COC(=O)C(Cc1ccc(N(CCCl)CCCl)cc1)N=Cc1ccccc1O (configuration not stated) | 0.31 µM |
| CC(=O)Nc1ccc(S(=O)(=O)N2c3ccccc3C(C)=CC2(C)C)cc1 | > 80 µM (inactive) |
| O=c1cc(-c2ccccc2)[nH]c2cc(Cl)ccc12 | > 80 µM (inactive) |
| Cc1ccc2[nH]c(-c3cccc(F)c3)cc(=O)c2c1 | > 80 µM (inactive) |
| Cc1noc(C)c1COc1cccc(C(=O)OCC(=O)N2CC(=O)Nc3ccccc32)c1 | > 80 µM (inactive) |
| CC(Oc1ccc(Cl)cc1Cl)C(=O)Nc1ccncc1 (configuration not stated) | > 80 µM (inactive) |
| COc1ccc(NC(=O)/C(Cl)=C(/Cl)S(=O)Cc2ccccc2Cl)cn1 (configuration not stated) | 1.27 µM |

| Structure (SMILES) | IC50 |
| --- | --- |
| CC(=O)Nc1ccc(S(=O)(=O)N2c3ccc(F)cc3CCC2C)cc1 (configuration not stated) | > 80 µM (inactive) |
| Cc1nn(-c2ccccc2Cl)c(Cl)c1/C=N/Nc1nc2ccccc2s1 | < 0.16 µM |
| COc1ccc(S(=O)(=O)/N=C2\C=C(Nc3ccc(O)cc3)C(=O)c3ccccc32)cc1 | 2.18 µM |
| CC(=O)O[C@H]1C(=O)[C@@]2(C)C([C@H](OC(=O)c3ccccc3)[C@]3(O)C[C@H](OC(=O)[C@H](O)[C@@H](NC(=O)c4ccccc4)c4ccccc4)C(C)=C1C3(C)C)[C@]1(OC(C)=O)CO[C@@H]1C[C@H]2O (some centres not stated) | > 80 µM (inactive) |
| CC(C)Nc1ccc(C(CC(N)=O)NC(=O)Cc2ccc(Br)cc2)cc1[N+](=O)[O-] (configuration not stated) | 37.8 µM (inactive) |
| Cc1ccc(C(=O)Nc2ncc(Cc3ccc(SC(F)F)cc3)s2)cc1 | > 80 µM (inactive) |
| C[C@@H]1O[C@@H](O[C@H]2C[C@@H](O)[C@]3(CO)[C@H]4[C@H](O)C[C@]5(C)[C@@H](C6COC(=O)C6)CC[C@]5(O)[C@@H]4CC[C@]3(O)C2)[C@H](O)[C@H](O)[C@H]1O (some centres not stated) | 3.72 µM |
| C=C1C(=O)C=C2CN(C(=O)c3ccccc3)[C@@](Cc3ccc(F)cc3)(C(=O)OC)[C@@H]12 | 1.01 µM |
| COc1cccc(N2CCN(c3ncnc4c3cnn4-c3ccc(C)cc3C)CC2)c1 | 1.58 µM |
| CCOC(=O)CSC1=C(C#N)C(c2ccc(C)s2)CC(=O)N1 (configuration not stated) | > 80 µM (inactive) |
| CCc1cc(C(=O)NC2CCCc3c2cnn3-c2cccc(C)c2C)n(C)n1 (configuration not stated) | > 80 µM (inactive) |
| O=C1c2c(O)ccc(O)c2C(=O)c2c(NCCNCCO)ccc(NCCNCCO)c21 | 4.2 µM |
| CCN(CC)c1ccc(/C=N/NC(=O)c2nnn(-c3nonc3N)c2C(C)C)c(O)c1 | 1.5 µM |
| Cc1ccc(C(=O)N/N=C/c2ccc([N+](=O)[O-])s2)cc1 | 4.21 µM |
| Cc1cc2c(cc1C)C(c1ccccc1OC(C)C)CC(=O)N2 (configuration not stated) | > 80 µM (inactive) |
| C#Cc1ccc([C@@H]2C=C(C(=O)N3CCN(Cc4ccccc4)CC3)O[C@H](OCCCCO)C2)cc1 | > 80 µM (inactive) |
| CCOCCOC(=O)c1[nH]c2c(c1C)C(=O)CC(c1cccs1)C2 (configuration not stated) | > 80 µM (inactive) |
| CC1CCCN(c2ncnc3c2cnn3-c2ccc(Cl)cc2)C1 (configuration not stated) | < 0.16 µM |
